Measured values reported in ChEMBL document CHEMBL1123622, “Quantitative structure-activity relationships of the bitter thresholds of amino acids, peptides, and their derivatives” (J Med Chem, 1987).
Non-standard residues stand in square brackets, D forms with d. Residues, ends and D or L forms follow the SMILES beside them.

Assay: Bitter threshold value; B denotes 'bitter'
Type: functional

Row | Structure (SMILES) | Log 1/T
1 | CC[C@H](C)[C@H](NC(=O)[C@H](C)N)C(=O)N[C@@H](C)C(=O)O (H-Ala-Ile-Ala-OH) | Bitter
2 | CC(C)C[C@@H](N)C(=O)NCC(=O)O (H-[dL]-Gly-OH) | Bitter
3 | CC(C)C[C@H](NC(=O)[C@H](C)NC(=O)CN)C(=O)O (H-Gly-Ala-Leu-OH) | Bitter
4 | CC(C)C[C@H](NC(=O)[C@H](C)NC(=O)[C@H](C)N)C(=O)O (H-Ala-Ala-Leu-OH) | Bitter

Assay: Bitter threshold value; NI denotes'Not identifiable (Citrous or fruity taste)'
Type: functional

Row | Structure (SMILES) | Log 1/T
5 | O=C(O)CNC(=O)[C@@H]1CCCN1 (H-Pro-Gly-OH) | Not identifiable
6 | CC(C)[C@H](NC(=O)[C@@H]1CCCN1)C(=O)O (H-Pro-Val-OH) | Not identifiable
